These results are taken from patent US8431704B2, “Quinoline or isoquinoline substituted P2X7 antagonists” (Janssen Pharmaceutica NV, priority 2008, dated 2013).

One data set concerns the target T1, hP2X7 (Homo sapiens, UniProt Q99572).
T1 construct: expressed in transfected cells; host or cells: 1321N1 astrocytoma cells
T1 sequence (Q99572 1-595): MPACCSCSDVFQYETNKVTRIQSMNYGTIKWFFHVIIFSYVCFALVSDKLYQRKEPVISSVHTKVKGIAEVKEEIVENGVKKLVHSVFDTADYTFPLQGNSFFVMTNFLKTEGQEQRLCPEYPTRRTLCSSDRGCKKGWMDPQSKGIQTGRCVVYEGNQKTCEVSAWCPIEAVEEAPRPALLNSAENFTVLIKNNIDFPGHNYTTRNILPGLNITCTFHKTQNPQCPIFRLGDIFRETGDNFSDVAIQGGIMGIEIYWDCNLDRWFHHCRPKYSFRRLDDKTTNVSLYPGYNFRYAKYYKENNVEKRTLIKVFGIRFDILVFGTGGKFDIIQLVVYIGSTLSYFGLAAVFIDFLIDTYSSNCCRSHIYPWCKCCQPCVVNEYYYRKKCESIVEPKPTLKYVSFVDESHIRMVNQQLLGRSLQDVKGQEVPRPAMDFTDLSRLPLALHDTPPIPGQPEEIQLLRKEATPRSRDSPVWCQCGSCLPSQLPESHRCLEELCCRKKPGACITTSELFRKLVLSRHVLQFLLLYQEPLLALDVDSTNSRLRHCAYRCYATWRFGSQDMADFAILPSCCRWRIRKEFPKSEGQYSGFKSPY
The data set can be described thus: P2X7 antagonism: ligand-induced Ca2+ flux in 1321N1 astrocytoma cells overexpressing hP2X7. The data set is classed as cell-based. To be noted: pIC50 = -log(IC50), read-out: hP2RX7pIC50 (mean pIC50 values) (converted). In outline:
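Intracellular Ca2+ tracked with a quenched Ca2+-sensitive fluorescent dye kit (excitation 488 nm, emission 510-560 nm) in 1321N1 cells, before and after agonist addition in presence of antagonist. Effects expressed as % control and IC50.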
For orientation: A change in cytosolic calcium serves as a functional read-out for many receptors and channels.

The target of a further data set is T2, P2X7 (Homo sapiens, UniProt Q99572).
T2 construct: endogenous in cells; host or cells: THP-1 human monocytic cell line
T2 sequence (Q99572 1-595): T1 sequence (Q99572 1-595)
The data set can be described thus: THP-1 YoPro uptake assay (BzATP-stimulated Yo-Pro-1 uptake). Type of data set: cell-based. The conditions noted are these: Table F-10, THP-1 cells, read-out: mean pIC50 values for P2X7 antagonism (converted). As for the experimental part:
The human monocytic cell line THP-1 was grown as a suspension culture in RPMI medium supplemented with 10% fetal bovine serum, penicillin/streptomycin (50 units/mL), 2 mM L-glutamine, and 20 μM 2-mercaptoethanol. Cells were maintained at a density below 0.5 million per mL. On the day of the assay, cells were washed twice with assay buffer, and then resuspended at 2 million per mL in assay buffer containing 2 μM Yo-Pro-1 (Invitrogen). The assay buffer contained (in mM): 280 sucrose, 5 KCl, 10 glucose, 10 HEPES, 5 N-methyl-D-glucamine. The cells were added at 200 k/well into poly-D-lysine-coated black-walled 96-well plates (Biocoat, Becton-Dickinson). Test compounds were dissolved in DMSO, and then added at the test concentration to each well of the 96-well plate. Concentration dependence of block was determined by exposing each well of cells in duplicate rows of a 96-well plate to a serial dilution of test compound. The concentration series usually started at 10 μM with a three-fold decrement in concentration. The final DMSO concentration seen by the cells was less than 0.5%. Cells were incubated with test compounds for 30 minutes at 37° C. A background reading was taken using a Gemini SpectraMax with 490 nm excitation and 530 nm emission. […] After incubation for 60 minutes at 37° C., an endpoint read was taken in the SpectraMax plate reader. The amount of block of the response was determined by comparing the fluorescence intensity in each well to the average of control wells on each plate. The control wells contained either a known antagonist of P2X7 (positive controls) or a concentration of DMSO equal to that in the test wells. Data were analyzed using a nonlinear regression program (Origin, OriginLab, MA). Results are reported as the −log of the IC50 (pIC50).

SMILES strings stand for the structures.

As a reminder, the melting point is the temperature of the solid-liquid transition.

For the compound `O=C(NCC(c1ccc(Cl)nc1)N1CCC(F)(F)CC1)c1cccc2ncccc12` (stereo not shown) [Compound 7], the melting point came out at 187.3 °C. For the same compound, the IC50 at hP2X7 was 25.1 nM.

In the case of `O=C(NCC(c1ccc(C(F)(F)F)nc1)N1CCC(O)(c2ccc(Cl)cc2)CC1)c1cccc2ncccc12` (stereo not shown) [Compound 29], the melting point lay within 155 to 162.2 °C. For the same compound, the IC50 at hP2X7 is greater than 10000 nM.

Regarding `O=C(NCC(c1cnc(C(F)(F)F)nc1)N1CCC(F)(F)CC1)c1cccc2nc(N3CCNCC3)ccc12` (stereo not shown) [Compound 78], the melting point amounted to 202.9 °C. Further, the IC50 at hP2X7 is 25.7 nM.

On to `O=C(NCC(c1ccc(C(F)(F)F)nc1)N1CCNCC1)c1cccc2ncccc12` (stereo not shown) [Compound 8], for which the melting point came to 198 °C. The IC50 on hP2X7 is greater than 10000 nM.

Turning to `O=C(NCC(c1cnc(C(F)(F)F)nc1)N1CCC(F)(F)CC1)c1cccc2nc(O)ccc12` (stereo not shown) [Compound 77], the melting point is 206.9 °C. Also, the IC50 at hP2X7 was 224 nM.

As to `O=C(NCC(c1cnc(C(F)(F)F)nc1)N1CCC(F)(F)CC1)c1cccc2ncccc12` (single isomer, unassigned) [Compound 46], the melting point was 217.7 °C. Besides, at hP2X7, the IC50 is 27.5 nM.

`NC(=O)C1CCN(C(CNC(=O)c2cccc3ncccc23)c2ccc(C(F)(F)F)nc2)CC1` (stereo not shown) [Compound 34] displayed a melting point of 253.7 to 254.3 °C. For the same compound, the IC50 on hP2X7 is greater than 10000 nM.

The compound `Cc1ncc(C(CNC(=O)c2cccc3nc(N4CCOCC4)ccc23)N2CCC(F)(F)CC2)cn1` (stereo not shown) [Compound 96] showed a melting point of 160 °C. Also, the IC50 at hP2X7 is 47.9 nM.

In the case of `O=C(NCC(c1cnc(C(F)(F)F)nc1)N1CCOCC1)c1c(Cl)ccc2nc(N3CC4(CNC4)C3)ccc12` (stereo not shown) [Compound 524], at P2X7, the IC50 was 30.2 nM.

For the compound `O=C(NCC(c1cnc(C(F)(F)F)nc1)N1CCC(F)(F)CC1)c1c(Cl)ccc2nc(N3CCC4(CCCN4)C3)ccc12` (stereo not shown) [Compound 531], the IC50 at P2X7 was 3.02 nM.

Turning to `N[C@@H]1CCCN(c2ccc3c(C(=O)NCC(c4cnc(C(F)(F)F)nc4)N4CCC(F)(F)CC4)c(Cl)ccc3n2)C1` (stereo partly shown) [Compound 423], the IC50 at P2X7 is 1.12 nM.

Turning to `CN[C@@H]1CCN(c2ccc3c(C(=O)NCC(c4cnc(C(F)(F)F)nc4)N4CCOCC4)c(Cl)ccc3n2)C1` (stereo partly shown) [Compound 562], the IC50 on P2X7 is 4.9 nM.

As to `CNc1ccc2c(C(=O)NCC(c3cnc(C(F)(F)F)nc3)N3CCOCC3)c(Cl)ccc2n1` (stereo not shown) [Compound 500], the IC50 on P2X7 is 10.2 nM.

As to `O=C(NCC(c1cnc(C(F)(F)F)nc1)N1CCC(F)(F)CC1)c1c(Cl)ccc2nc(N3CCN(C4CC4)CC3)ccc12` (stereo not shown) [Compound 425], on P2X7, the IC50 was 6.31 nM.

Consider `NC1CN(c2ccc3c(C(=O)NCC(c4cnc(C(F)(F)F)nc4)N4CCOCC4)c(Cl)ccc3n2)C1` (stereo not shown) [Compound 512], for which the IC50 at P2X7 is 5.37 nM.

The compound `CC(C)(C)OC(=O)N1CCN(c2ccc3c(C(=O)NCC(c4cnc(C(F)(F)F)nc4)N4CCCC(F)(F)C4)cccc3n2)CC1` (stereo not shown) [Compound 106] gave a melting point of 159.7 °C. The IC50 on hP2X7 was 138 nM.

Take `CC(C)CN1CCN(c2ccc3c(C(=O)NCC(c4cnc(C(F)(F)F)nc4)N4CCOCC4)c(Cl)ccc3n2)CC1` (stereo not shown) [Compound 408]: the IC50 on P2X7 was 6.76 nM.

Regarding `CN(C)[C@@H]1CCN(c2ccc3c(C(=O)NCC(c4cnc(C(F)(F)F)nc4)N4CCOCC4)c(Cl)ccc3n2)C1` (stereo partly shown) [Compound 406], the IC50 on P2X7 is 8.71 nM.

`O=C(NCC(c1cnc(C(F)(F)F)nc1)N1CCOCC1)c1c(Cl)ccc2nc(N3CC[C@H](O)C3)ccc12` (stereo partly shown) [Compound 506]: the IC50 at P2X7 is 18.2 nM.

Take `N[C@@H]1CCCN(c2ccc3c(C(=O)NCC(c4cnc(C(F)(F)F)nc4)N4CCOCC4)c(Cl)ccc3n2)C1` (stereo partly shown) [Compound 413]: at P2X7, the IC50 is 5.13 nM.

Regarding `CC(C)N1CCN(c2ccc3c(C(=O)NCC(c4cnc(C(F)(F)F)nc4)N4CCC(F)(F)CC4)cccc3n2)CC1` (stereo not shown) [Compound 134], the melting point turned out to be 236.3 °C.

Consider `CSc1ncc(C(CNC(=O)c2c(Cl)ccc3ncccc23)N2CCC(F)(F)CC2)cn1` (stereo not shown) [Compound 582, 6-chloro-quinoline-5-carboxylic acid [2-(4,4-difluoro-piperidin-1-yl)-2-(2-methylsulfanyl-pyrimidin-5-yl)-ethyl]-amide], for which the IC50 on P2X7 is 10.7 nM.

Take `O=C(NCC(c1cnc(C(F)(F)F)nc1)N1CCC(F)(F)CC1)c1c(Cl)ccc2nc(N3CCCOCC3)ccc12` (stereo not shown) [Compound 466]: the IC50 at P2X7 was 8.13 nM.

Take `NCC1CCN(c2ccc3c(C(=O)NCC(c4cnc(C(F)(F)F)nc4)N4CCC(F)(F)CC4)c(Cl)ccc3n2)CC1` (stereo not shown) [Compound 528]: the IC50 at P2X7 was 4.57 nM.

As to `O=C(NCC(c1cnc(C(F)(F)F)nc1)N1CCOCC1)c1c(Cl)ccc2nc(N3CC4CCNC4C3)ccc12` (stereo not shown) [Compound 560], at P2X7, the IC50 was 4.9 nM.

Take `O=C(NCC(c1cnc(C(F)(F)F)nc1)N1CCOCC1)c1c(Cl)ccc2nc(N3CCCNCC3)ccc12` (stereo not shown) [Compound 444]: the IC50 on P2X7 is 25.7 nM.

With `CC(C)CN1CCN(c2ccc3c(C(=O)NCC(c4cnc(C(F)(F)F)nc4)N4CCC(F)(F)CC4)c(Cl)ccc3n2)CC1` (stereo not shown) [Compound 426], the IC50 at P2X7 is 5.75 nM.

On to `O=C(NCC(c1cnc(C(F)(F)F)nc1)N1CCC(F)(F)CC1)c1c(Cl)ccc2nc(N3CCNCC3)ccc12` (stereo not shown) [Compound 485], for which the IC50 at P2X7 was 2.24 nM.

For the compound `CCN1CCN(c2ccc3c(C(=O)NCC(c4cnc(C(F)(F)F)nc4)N4CCOCC4)c(Cl)ccc3n2)CC1` (stereo not shown) [Compound 411], the IC50 on P2X7 was 5.62 nM.

`O=C(NCC(c1cnc(C(F)(F)F)nc1)N1CCC(F)(F)CC1)c1c(Cl)ccc2nc(N3CC(O)(C(F)(F)F)C3)ccc12` (stereo not shown) [Compound 509]: the IC50 on P2X7 is 17.8 nM.

Consider `O=C(NCC(c1cnc(C(F)(F)F)nc1)N1CCC(F)(F)CC1)c1c(Cl)ccc2nc(N3C[C@@H]4C[C@H]3CO4)ccc12` (stereo partly shown) [Compound 530], for which the IC50 on P2X7 is 2.63 nM.

Regarding `CC1CN(c2ccc3c(C(=O)NCC(c4cnc(C(F)(F)F)nc4)N4CCOCC4)c(Cl)ccc3n2)CC(C)N1` (stereo not shown) [Compound 436], at P2X7, the IC50 was 31.6 nM.

On to `CC(CO)Nc1ccc2c(C(=O)NCC(c3cnc(C(F)(F)F)nc3)N3CCOCC3)c(Cl)ccc2n1` (stereo not shown) [Compound 456], for which, on P2X7, the IC50 was 7.24 nM.

With `CC(=O)N1C[C@@H]2C[C@H]1N(c1ccc3c(C(=O)NCC(c4cnc(C(F)(F)F)nc4)N4CCOCC4)c(Cl)ccc3n1)C2` (stereo partly shown) [Compound 461], the IC50 at P2X7 is 107 nM.

In the case of `O=C(NCC(c1cnc(C(F)(F)F)nc1)N1CCC(F)(F)CC1)c1c(Cl)ccc2nc(NC3CC3)ccc12` (stereo not shown) [Compound 493], at P2X7, the IC50 is 8.71 nM.

`O=C(NCC(c1cnc(C(F)(F)F)nc1)N1CCOCC1)c1c(Cl)ccc2nc(N3CC4CNCC4C3)ccc12` (stereo not shown) [Compound 558]: the IC50 at P2X7 was 2.51 nM.

Turning to `N[C@H]1CCN(c2ccc3c(C(=O)NCC(c4cnc(C(F)(F)F)nc4)N4CCOCC4)c(Cl)ccc3n2)C1` (stereo partly shown) [Compound 563], the IC50 on P2X7 was 0.851 nM.

In the case of `O=C(NCC(c1cnc(C(F)(F)F)nc1)N1CCC(F)(F)CC1)c1c(Cl)ccc2nc(N3CCC4(CCCCN4)C3)ccc12` (stereo not shown) [Compound 529], the IC50 at P2X7 is 5.62 nM.

Regarding `O=C(NCC(c1cnc(C(F)(F)F)nc1)N1CCCCC1)c1c(Cl)ccc2nc(NCCO)ccc12` (stereo not shown) [Compound 547], at P2X7, the IC50 is 3.47 nM.

In the case of `O=C(NCC(c1cnc(C(F)(F)F)nc1)N1CCOCC1)c1c(Cl)ccc2nc(N3C[C@@H]4C[C@H]3CO4)ccc12` (stereo partly shown) [Compound 526], the IC50 at P2X7 is 56.2 nM.
